{"source": "ChEMBL document CHEMBL1201862", "about": "“PubChem BioAssay data set” (2004)", "test_in_all_cases": "DTP human tumour cell line panel, 48 h", "key": {"DU-145": {"tested_on": "DU-145"}, "UO-31": {"tested_on": "UO-31"}, "U-251": {"tested_on": "U-251"}, "NCI-H522": {"tested_on": "NCI-H522"}, "KM12": {"tested_on": "KM12"}, "HT-29": {"tested_on": "HT-29"}, "SK-MEL-2": {"tested_on": "SK-MEL-2"}, "M14": {"tested_on": "M14"}, "MDA-MB-435": {"tested_on": "MDA-MB-435"}, "TK-10": {"tested_on": "TK-10"}, "HOP-92": {"tested_on": "HOP-92"}, "UACC-62": {"tested_on": "UACC-62"}, "BT-549": {"tested_on": "BT-549"}, "K562": {"tested_on": "K562"}, "MDA-MB-231": {"tested_on": "MDA-MB-231"}, "HOP-62": {"tested_on": "HOP-62"}, "OVCAR-3": {"tested_on": "OVCAR-3"}, "786-0": {"tested_on": "786-0"}, "SW-620": {"tested_on": "SW-620"}, "SF-539": {"tested_on": "SF-539"}, "NCI-H226": {"tested_on": "NCI-H226"}, "A498": {"tested_on": "A498"}, "SK-MEL-28": {"tested_on": "SK-MEL-28"}, "RPMI-8226": {"tested_on": "RPMI-8226"}, "SNB-75": {"tested_on": "SNB-75"}, "MDA-N": {"tested_on": "MDA-N"}, "MCF7": {"tested_on": "MCF7"}, "SF-295": {"tested_on": "SF-295"}, "HCT-15": {"tested_on": "HCT-15"}, "LOX IMVI": {"tested_on": "LOX IMVI"}, "IGROV-1": {"tested_on": "IGROV-1"}, "NCI-H23": {"tested_on": "NCI-H23"}, "A549": {"tested_on": "A549"}, "ACHN": {"tested_on": "ACHN"}, "NCI-H460": {"tested_on": "NCI-H460"}, "Malme-3M": {"tested_on": "Malme-3M"}, "SN12C": {"tested_on": "SN12C"}, "RXF 393": {"tested_on": "RXF 393"}, "UACC-257": {"tested_on": "UACC-257"}, "CCRF-CEM": {"tested_on": "CCRF-CEM"}, "PC-3": {"tested_on": "PC-3"}, "Hs-578T": {"tested_on": "Hs-578T"}, "SR": {"tested_on": "SR"}, "SF-268": {"tested_on": "SF-268"}, "SK-MEL-5": {"tested_on": "SK-MEL-5"}, "OVCAR-8": {"tested_on": "OVCAR-8"}, "HL-60": {"tested_on": "HL-60"}, "MOLT-4": {"tested_on": "MOLT-4"}, "COLO 205": {"tested_on": "COLO 205"}, "T47D": {"tested_on": "T47D"}, "HCC 2998": {"tested_on": "HCC 2998"}, "HCT-116": {"tested_on": "HCT-116"}, "EKVX": {"tested_on": "EKVX"}, "SNB-19": {"tested_on": "SNB-19"}, "CAKI-1": {"tested_on": "CAKI-1"}, "SK-OV-3": {"tested_on": "SK-OV-3"}, "OVCAR-5": {"tested_on": "OVCAR-5"}}, "note": "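Tested at 5 concentrations; 48 h exposure; 96-well plates; endpoints linearly interpolated, else capped at highest concentration. Here, GI50 denotes the concentration required for 50% inhibition of growth.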 Active and inactive are the calls of the source. Cut-off read from the data, not from the text of the source: active = GI50 up to about 1.1 µM and inactive = higher.", "data": [{"compound": "CC1C(c2ccccc2O)c2cc3c(cc2OC1N1CCCC1)OCO3", "note": "(configuration not stated)", "values": [{"measurement": "GI50", "setting": "DU-145", "result": "45.1 µM (inactive)"}, {"measurement": "GI50", "setting": "UO-31", "result": "31.6 µM (inactive)"}, {"measurement": "GI50", "setting": "U-251", "result": "31.7 µM (inactive)"}, {"measurement": "GI50", "setting": "NCI-H522", "result": "23.2 µM (inactive)"}, {"measurement": "GI50", "setting": "KM12", "result": "33.5 µM (inactive)"}, {"measurement": "GI50", "setting": "HT-29", "result": "17.1 µM (inactive)"}, {"measurement": "GI50", "setting": "SK-MEL-2", "result": "23.4 µM (inactive)"}, {"measurement": "GI50", "setting": "M14", "result": "17.9 µM (inactive)"}, {"measurement": "GI50", "setting": "MDA-MB-435", "result": "26.9 µM (inactive)"}, {"measurement": "GI50", "setting": "TK-10", "result": "39.2 µM (inactive)"}, {"measurement": "GI50", "setting": "HOP-92", "result": "19.8 µM (inactive)"}, {"measurement": "GI50", "setting": "UACC-62", "result": "35.5 µM (inactive)"}, {"measurement": "GI50", "setting": "BT-549", "result": "32.3 µM (inactive)"}, {"measurement": "GI50", "setting": "K562", "result": "20 µM (inactive)"}, {"measurement": "GI50", "setting": "MDA-MB-231", "result": "27.8 µM (inactive)"}, {"measurement": "GI50", "setting": "HOP-62", "result": "21.4 µM (inactive)"}, {"measurement": "GI50", "setting": "OVCAR-3", "result": "20.9 µM (inactive)"}, {"measurement": "GI50", "setting": "786-0", "result": "20 µM (inactive)"}, {"measurement": "GI50", "setting": "SW-620", "result": "20.8 µM (inactive)"}, {"measurement": "GI50", "setting": "SF-539", "result": "24.9 µM (inactive)"}, {"measurement": "GI50", "setting": "NCI-H226", "result": "27.9 µM (inactive)"}, {"measurement": "GI50", "setting": "A498", "result": "23.2 µM (inactive)"}, {"measurement": "GI50", "setting": "SK-MEL-28", "result": "20.4 µM (inactive)"}, {"measurement": "GI50", "setting": "RPMI-8226", "result": "24.5 µM (inactive)"}, {"measurement": "GI50", "setting": "SNB-75", "result": "22.2 µM (inactive)"}, {"measurement": "GI50", "setting": "MDA-N", "result": "18.8 µM (inactive)"}, {"measurement": "GI50", "setting": "MCF7", "result": "26.5 µM (inactive)"}, {"measurement": "GI50", "setting": "SF-295", "result": "27.2 µM (inactive)"}, {"measurement": "GI50", "setting": "HCT-15", "result": 19.8, "unit": "µM"}, {"measurement": "GI50", "setting": "LOX IMVI", "result": "18.4 µM (inactive)"}, {"measurement": "GI50", "setting": "IGROV-1", "result": "39.3 µM (inactive)"}, {"measurement": "GI50", "setting": "NCI-H23", "result": "39 µM (inactive)"}, {"measurement": "GI50", "setting": "A549", "result": "31 µM (inactive)"}, {"measurement": "GI50", "setting": "ACHN", "result": "32.7 µM (inactive)"}, {"measurement": "GI50", "setting": "NCI-H460", "result": "16.1 µM (inactive)"}, {"measurement": "GI50", "setting": "Malme-3M", "result": "25.3 µM (inactive)"}, {"measurement": "GI50", "setting": "SN12C", "result": "19.4 µM (inactive)"}, {"measurement": "GI50", "setting": "RXF 393", "result": "13.7 µM (inactive)"}, {"measurement": "GI50", "setting": "UACC-257", "result": "25.1 µM (inactive)"}, {"measurement": "GI50", "setting": "CCRF-CEM", "result": "23.8 µM (inactive)"}, {"measurement": "GI50", "setting": "PC-3", "result": "28.1 µM (inactive)"}, {"measurement": "GI50", "setting": "Hs-578T", "result": "18.2 µM (inactive)"}, {"measurement": "GI50", "setting": "SR", "result": "18.8 µM (inactive)"}, {"measurement": "GI50", "setting": "SF-268", "result": "33.3 µM (inactive)"}, {"measurement": "GI50", "setting": "SK-MEL-5", "result": "39.2 µM (inactive)"}, {"measurement": "GI50", "setting": "OVCAR-8", "result": "11.5 µM (inactive)"}, {"measurement": "GI50", "setting": "HL-60", "result": "19.2 µM (inactive)"}, {"measurement": "GI50", "setting": "MOLT-4", "result": "19.6 µM (inactive)"}, {"measurement": "GI50", "setting": "COLO 205", "result": "23.3 µM (inactive)"}, {"measurement": "GI50", "setting": "T47D", "result": "34.7 µM (inactive)"}, {"measurement": "GI50", "setting": "HCC 2998", "result": "40.6 µM (inactive)"}, {"measurement": "GI50", "setting": "HCT-116", "result": "19.5 µM (inactive)"}, {"measurement": "GI50", "setting": "EKVX", "result": "41.9 µM (inactive)"}, {"measurement": "GI50", "setting": "SNB-19", "result": "49.4 µM (inactive)"}, {"measurement": "GI50", "setting": "CAKI-1", "result": "34.7 µM (inactive)"}, {"measurement": "GI50", "setting": "SK-OV-3", "result": "88.7 µM (inactive)"}, {"measurement": "GI50", "setting": "OVCAR-5", "result": "32.2 µM (inactive)"}]}]}
